Assay results published in patent US20220143198A1, “COMPOSITIONS AND METHODS RELATED TO TETHERED KETHOXAL DERIVATIVES” (The University of Chicago, priority 2019, published 2022).

How the values were obtained:
guanosine [1] = test: Reactivity of kethoxal derivatives with guanosine (conversion rates of guanosine); assay type: biochemical
guanosine [2] = test: Reversibility of kethoxal derivatives by adjusting pH (kethoxal-guanosine adduct dissociation); assay type: physicochemical
guanosine [3] = test: Reversibility of kethoxal derivatives using GTP for competition (LCMS of free guanosine); assay type: physicochemical; details: 1:1 ratio
[4] = pH = 5.8, 10 min after adjusting from pH 10.1, 1:1 ratio
[5] = pH = 5.8, 4 h after adjusting from pH 10.1, 1:1 ratio
[6] = pH = 5.8, 24 h after adjusting from pH 10.1, 1:1 ratio
[7] = pH = 10.1, 10 min, kethoxal derivative and guanosine 1:1
[8] = pH = 7.0, 10 min, excess GTP added after 10 min
[9] = pH = 7.0, 2 h, excess GTP competitor
[10] = pH = 7.0, 24 h, excess GTP competitor

`[N-]=[N+]=NCCOC(F)C(=O)C=O` (stereo not shown) [drawing 58] was tested, and the “Conversion rate of guanosine” value (guanosine [1]; pH = 7.0, S1:S2 = 1:0) was 24.7%, the “Conversion rate of guanosine” value (guanosine [1]; pH = 7.0, S1:S2 = 1:1) was 6.4% and the “Conversion rate of guanosine” value (guanosine [1]; pH = 7.0, S1:S2 = 1:2) was 8.2%. The “Conversion rate of guanosine” value (guanosine [1]; pH = 7.0, S1:S2 = 1:4) was 16.5% and the “Conversion rate of guanosine” value (guanosine [1]; pH = 7.0, S1:S2 = 2:1) was 3.2%.

With `[N-]=[N+]=NCCOC(F)(F)C(=O)C=O` [drawing 59] the “Conversion rate of guanosine” value (guanosine [1]; pH = 7.0, S1:S2 = 1:0) was 9.8%, the “Conversion rate of guanosine” value (guanosine [1]; pH = 7.0, S1:S2 = 1:1) was 1.4% and the “Conversion rate of guanosine” value (guanosine [1]; pH = 7.0, S1:S2 = 1:2) was 1.9%. The “Conversion rate of guanosine” value (guanosine [1]; pH = 7.0, S1:S2 = 1:4) was 3.8% and the “Conversion rate of guanosine” value (guanosine [1]; pH = 7.0, S1:S2 = 2:1) was 0%.

For `O=CC(=O)Cc1ccccc1` [drawing 60], the “Conversion rate of guanosine” value (guanosine [1]; pH = 7.0, S1:S2 = 1:1) was 22.5%, the “Conversion rate of guanosine” value (guanosine [1]; pH = 7.0, S1:S2 = 1:2) was 30.4% and the “Conversion rate of guanosine” value (guanosine [1]; pH = 7.0, S1:S2 = 2:1) was 9.0%.

`CC(OCCN=[N+]=[N-])C(=O)C=O` (stereo not shown) [drawing 62] was tested, and the Conversion of guanosine (guanosine [2]; [4]) was 79.8%, the Conversion of guanosine (guanosine [2]; [5]) was 80.2% and the Conversion of guanosine (guanosine [2]; [6]) was 81.8%. The Conversion of guanosine (guanosine [2]; [7]) was 79.8%.

`CC(C)(OCCN=[N+]=[N-])C(=O)C=O` [drawing 63] showed a Conversion of guanosine (guanosine [2]; [5]) of 77.6%, a Conversion of guanosine (guanosine [2]; [6]) of 80.3% and a Conversion of guanosine (guanosine [2]; [7]) of 77.0%.

`[N-]=[N+]=NCCOCC(=O)C=O` [drawing 64] showed a Conversion of guanosine (guanosine [2]; [5]) of 75.0%, a Conversion of guanosine (guanosine [2]; [6]) of 76.1% and a Conversion of guanosine (guanosine [2]; [7]) of 74.6%.

Work on `CC(OC(=O)CN=[N+]=[N-])C(=O)C=O` (stereo not shown) [drawing 65] yielded a Conversion of guanosine (guanosine [2]; [5]) of 77.3%, a Conversion of guanosine (guanosine [2]; [6]) of 77.2% and a Conversion of guanosine (guanosine [2]; [7]) of 75.5%.

In the case of `CC(N=[N+]=[N-])C(=O)C=O` (stereo not shown) [drawing 66], the Conversion of guanosine (guanosine [2]; [4]) is reported as 65.6%, the Conversion of guanosine (guanosine [2]; [5]) is reported as 65.2% and the Conversion of guanosine (guanosine [2]; [6]) is reported as 58.7%. For the same molecule, the Conversion of guanosine (guanosine [2]; [7]) was 65.9%.

In the case of `CC(Br)C(=O)C=O` (stereo not shown) [drawing 67], the Conversion of guanosine (guanosine [2]; [5]) is reported as 64.3%, the Conversion of guanosine (guanosine [2]; [6]) is reported as 62.9% and the Conversion of guanosine (guanosine [2]; [7]) is reported as 62.7%.

With `CC(OCCN=[N+]=[N-])C(=O)C=O` (stereo not shown) [drawing 77] the “Conversion of guanosine under competition condition” value (guanosine [3]; [8]) was 71.4%, the “Conversion of guanosine under competition condition” value (guanosine [3]; [9]) was 60.8% and the “Conversion of guanosine under competition condition” value (guanosine [3]; [10]) was 28.9%.

For `CC(C)(OCCN=[N+]=[N-])C(=O)C=O` [drawing 78], the “Conversion of guanosine under competition condition” value (guanosine [3]; [8]) was 51.6%, the “Conversion of guanosine under competition condition” value (guanosine [3]; [9]) was 55.9% and the “Conversion of guanosine under competition condition” value (guanosine [3]; [10]) was 33.6%.

For `[N-]=[N+]=NCCOCC(=O)C=O` [drawing 79], the “Conversion of guanosine under competition condition” value (guanosine [3]; [8]) was 47.4%, the “Conversion of guanosine under competition condition” value (guanosine [3]; [9]) was 29.7% and the “Conversion of guanosine under competition condition” value (guanosine [3]; [10]) was 27.4%.

For `CC(OC(=O)CN=[N+]=[N-])C(=O)C=O` (stereo not shown) [drawing 80], the “Conversion of guanosine under competition condition” value (guanosine [3]; [8]) was 54.4%, the “Conversion of guanosine under competition condition” value (guanosine [3]; [9]) was 44.6% and the “Conversion of guanosine under competition condition” value (guanosine [3]; [10]) was 37.5%.

`CC(N=[N+]=[N-])C(=O)C=O` (stereo not shown) [drawing 81] was tested, and the “Conversion of guanosine under competition condition” value (guanosine [3]; [8]) was 56.5% and the “Conversion of guanosine under competition condition” value (guanosine [3]; [9]) was 40.9%.

With `CC(Br)C(=O)C=O` (stereo not shown) [drawing 82] the “Conversion of guanosine under competition condition” value (guanosine [3]; [8]) was 46.2%, the “Conversion of guanosine under competition condition” value (guanosine [3]; [9]) was 38.2% and the “Conversion of guanosine under competition condition” value (guanosine [3]; [10]) was 18.6%.

In the case of `[N-]=[N+]=NCCCC(=O)C=O` [drawing 85], the “Conversion of guanosine under competition condition” value (guanosine [3]; [8]) is reported as 46.2%, the “Conversion of guanosine under competition condition” value (guanosine [3]; [9]) is reported as 21.0% and the “Conversion of guanosine under competition condition” value (guanosine [3]; [10]) is reported as 22.1%.

`CC(C(=O)C=O)N(C)C(=O)CN=[N+]=[N-]` (stereo not shown) [drawing 86] was tested, and the “Conversion of guanosine under competition condition” value (guanosine [3]; [8]) was 41.8%, the “Conversion of guanosine under competition condition” value (guanosine [3]; [9]) was 26.1% and the “Conversion of guanosine under competition condition” value (guanosine [3]; [10]) was 23.4%.

In the case of `[N-]=[N+]=NCCOCCC(=O)C=O` [drawing 87], the “Conversion of guanosine under competition condition” value (guanosine [3]; [8]) is reported as 41.3%, the “Conversion of guanosine under competition condition” value (guanosine [3]; [9]) is reported as 12.6% and the “Conversion of guanosine under competition condition” value (guanosine [3]; [10]) is reported as 11.2%.

`O=CC(=O)c1ccccc1` [drawing 88] was tested, and the “Conversion of guanosine under competition condition” value (guanosine [3]; [8]) was 25.7%, the “Conversion of guanosine under competition condition” value (guanosine [3]; [9]) was 12.3% and the “Conversion of guanosine under competition condition” value (guanosine [3]; [10]) was 4.4%.

With `[N-]=[N+]=NCCOC(F)C(=O)C=O` (stereo not shown) [drawing 89] the “Conversion of guanosine under competition condition” value (guanosine [3]; [8]) was 6.4%, the “Conversion of guanosine under competition condition” value (guanosine [3]; [9]) was 18.6% and the “Conversion of guanosine under competition condition” value (guanosine [3]; [10]) was 22.8%.

`[N-]=[N+]=NCCOC(F)(F)C(=O)C=O` [drawing 90] was tested, and the “Conversion of guanosine under competition condition” value (guanosine [3]; pH = 10.1, 10 min, excess GTP added after 10 min) was 51.2% (pH = 10.1), the “Conversion of guanosine under competition condition” value (guanosine [3]; pH = 10.1, 2 h, excess GTP competitor) was 42.4% (pH = 10.1) and the “Conversion of guanosine under competition condition” value (guanosine [3]; pH = 10.1, 24 h, excess GTP competitor) was 22.2% (pH = 10.1).

For `O=CC(=O)Cc1ccccc1` [drawing 91], the “Conversion of guanosine under competition condition” value (guanosine [3]; [8]) was 21.8%, the “Conversion of guanosine under competition condition” value (guanosine [3]; [9]) was 9.6% and the “Conversion of guanosine under competition condition” value (guanosine [3]; [10]) was 8.4%.

In the case of `O=CC(=O)c1ccccc1` [phenyl-substituted kethoxal derivative], the “Conversion rate of guanosine” value (guanosine [1]; pH = 7.0, S1:S2 = 1:1) is reported as 18.8%, the “Conversion rate of guanosine” value (guanosine [1]; pH = 7.0, S1:S2 = 1:2) is reported as 37.6% and the “Conversion rate of guanosine” value (guanosine [1]; pH = 7.0, S1:S2 = 1:3) is reported as 51.0%. The “Conversion rate of guanosine” value (guanosine [1]; pH = 7.0, S1:S2 = 1:5) was 67.0%, the “Conversion rate of guanosine” value (guanosine [1]; pH = 7.8, S1:S2 = 1:1) was 32.2% and the “Conversion rate of guanosine” value (guanosine [1]; pH = 7.8, S1:S2 = 1:2) was 51.2%. The “Conversion rate of guanosine” value (guanosine [1]; pH = 7.8, S1:S2 = 1:3) was 66.2% and the “Conversion rate of guanosine” value (guanosine [1]; pH = 7.8, S1:S2 = 1:5) was 80.1%.
